Data from patent US6221858A, “Pyridyl-and pyrimidyl-piperazines in the treatment of substance abuse disorders” (priority 1996, dated 2001).
Counter-ions that a name gives are not always drawn. Like-named read-outs stand apart in the source and are kept apart here.

Tests used:
[1] = biological target: T1, [3H]-5-HT uptake by synaptosomes from rat frontal cortex (Rattus norvegicus, UniProt P31652); assay: Uptake of [3H]-5-HT by synaptosomes from rat frontal cortex; assay type: biochemical
T1 construct: synaptosomes from rat frontal cortex; from tissue; host or cells: rat frontal cortex synaptosomes
T1 sequence (P31652 whole entry): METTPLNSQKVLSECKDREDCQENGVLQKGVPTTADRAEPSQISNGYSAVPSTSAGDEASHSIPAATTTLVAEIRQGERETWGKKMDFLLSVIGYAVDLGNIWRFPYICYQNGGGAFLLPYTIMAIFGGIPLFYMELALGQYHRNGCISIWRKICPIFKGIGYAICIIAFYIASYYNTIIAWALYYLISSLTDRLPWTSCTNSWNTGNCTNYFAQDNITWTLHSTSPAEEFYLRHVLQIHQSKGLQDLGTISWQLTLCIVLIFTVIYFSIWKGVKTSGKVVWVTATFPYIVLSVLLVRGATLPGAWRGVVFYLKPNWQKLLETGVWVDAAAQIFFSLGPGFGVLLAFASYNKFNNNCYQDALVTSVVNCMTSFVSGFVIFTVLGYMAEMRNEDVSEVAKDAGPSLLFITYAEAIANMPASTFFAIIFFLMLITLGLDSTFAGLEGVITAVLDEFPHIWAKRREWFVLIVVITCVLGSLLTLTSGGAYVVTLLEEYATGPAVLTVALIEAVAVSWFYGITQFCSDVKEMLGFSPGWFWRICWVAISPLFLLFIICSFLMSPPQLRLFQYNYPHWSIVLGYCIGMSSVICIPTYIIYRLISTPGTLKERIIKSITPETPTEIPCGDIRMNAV

5-HT2A Sites = biological target: T2, 5-HT2A Sites (Rattus norvegicus, UniProt P14842); assay: Drug affinity for 5-HT2A sites (3H-Ketanserin binding, cerebral cortex); details: Radioligand 3H-Ketanserin; tissue cerebral cortex
T2 construct: Radioligand: ^3 H-Ketanserin Tissue: Cerebral cortex; from tissue; host or cells: cerebral cortex
T2 sequence (P14842 whole entry): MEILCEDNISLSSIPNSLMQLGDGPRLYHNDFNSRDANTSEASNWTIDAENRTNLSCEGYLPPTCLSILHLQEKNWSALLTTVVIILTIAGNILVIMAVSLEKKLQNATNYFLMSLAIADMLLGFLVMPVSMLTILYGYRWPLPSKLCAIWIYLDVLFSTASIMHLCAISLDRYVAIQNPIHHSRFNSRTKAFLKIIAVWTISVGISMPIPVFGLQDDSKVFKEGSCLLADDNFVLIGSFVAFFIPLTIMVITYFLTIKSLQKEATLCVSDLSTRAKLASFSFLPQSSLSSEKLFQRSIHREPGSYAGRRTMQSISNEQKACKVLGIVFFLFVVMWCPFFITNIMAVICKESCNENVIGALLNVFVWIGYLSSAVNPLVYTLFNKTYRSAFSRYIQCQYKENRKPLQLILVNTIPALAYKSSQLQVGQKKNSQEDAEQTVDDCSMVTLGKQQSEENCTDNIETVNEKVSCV

5-HT1A Sites = biological target: T3, 5-HT1A Sites (Rattus norvegicus, UniProt P19327); assay: biochemical; assay type: binding
T3 sequence (P19327 1-422): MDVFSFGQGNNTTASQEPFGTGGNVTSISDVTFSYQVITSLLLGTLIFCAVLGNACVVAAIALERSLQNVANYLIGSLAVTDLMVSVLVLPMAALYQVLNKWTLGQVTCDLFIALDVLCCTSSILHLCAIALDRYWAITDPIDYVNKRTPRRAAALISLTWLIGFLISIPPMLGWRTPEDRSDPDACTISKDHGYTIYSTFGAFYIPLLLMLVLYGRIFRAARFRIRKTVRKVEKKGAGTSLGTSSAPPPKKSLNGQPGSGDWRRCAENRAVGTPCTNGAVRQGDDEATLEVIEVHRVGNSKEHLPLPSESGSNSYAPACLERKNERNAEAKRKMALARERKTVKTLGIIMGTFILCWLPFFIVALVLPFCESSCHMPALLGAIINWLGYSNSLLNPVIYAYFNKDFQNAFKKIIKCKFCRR

rats = details: cited from earlier work
[2] = test system: alcohol-dependent individuals; details: compared to placebo; cited from earlier work
monkeys = details: cited from earlier work
[3] = test system: alcohol preferring (P) rats; assay: Effect on alcohol intake in alcohol preferring (P) rats; assay type: in vivo, rat
Protocol: To further illustrate the useful pharmacological properties of compounds of formula (I), the effect of Compound A administered systematically was determined in alcohol preferring (P) rats. Because of its pattern of drinking, the P animal seems to represent a valid genetically based model to approximate the human condition of alcoholism (McBride et al., Alcohol 7:199-205, 1990; Lankford et al., Pharmacol. Biochem. Behav. 8:293-299,1991). After maximally preferred alcohol concentrations had stabilised for four days, Compound A in a dose of 2.5 and 10 mg/kg was administered twice a day over four consecutive days. […] The highest dose of Compound A reduced intake of alcohol by >40%.

[4] = Radioligand 3H-8-OH-DPAT, tissue hippocampus

CCNC(=O)N1CCN(CCCC(c2ccc(F)cc2)c2ccc(F)cc2)CC1 [Amperozide, reference compound]
IC50 [1]: 0.32 µM
Ki (5-HT2A Sites): 0.016 µM
Ki (5-HT1A Sites): 0.805 µM
Intake of alcohol (rats): significantly attenuate

O=C1CC2(CCCC2)CC(=O)N1CCCCN1CCN(c2ncccn2)CC1 [Buspirone]
Drop-out rate [2]: lower drop-out rate
Signs of craving [2]: fewer signs of craving
Consumption of alcohol (monkeys): attenuate significantly

Cc1cccc(N2CCN(CCCCc3ccc(F)cc3)CC2)n1.O=C(O)/C=C/C(=O)O [Compound A, 1-[4-(p-fluorophenyl)-butyl]-4-(6-methyl-2-pyridinyl)-piperazine fumarate]
IC50 [1]: 12 µM
Ki (5-HT2A Sites): 0.01 µM
Ki (5-HT1A Sites; [4]): 0.0009 µM
Food and water after injections ([3]; after Compound A injections): returned to pre-drug levels
Intake of alcohol (absolute g/kg and proportion of alcohol to total fluid intake) ([3]; both doses, 2.5 and 10 mg/kg twice a day over four days, during administration): significantly reduced
Ingestion of food and water ([3]; each dose, during the period of injection): increased the ingestion of food and water above pre-treatment levels
Alcohol intakes after administration versus pre-treatment level ([3]; five days following administration, intakes rebounded): still being significantly lower than those of the pre-treatment level
Reduction of intake of alcohol ([3]; highest dose (10 mg/kg) twice a day over four consecutive days): > 40%

CCOc1cccnc1N1CCN(CCCCc2ccc(F)cc2)CC1 [Compound B, 1-[4-(p-fluorophenyl)-butyl]-4-(3-ethoxy-2-pyridinyl)-piperazine fumarate]
Ki (5-HT2A Sites): 0.0016 µM
Ki (5-HT1A Sites; [4]): 0.0017 µM

COC(=O)c1cccnc1N1CCN(CCCC(c2ccc(F)cc2)c2ccc(F)cc2)CC1 [FG5893, 2-[4-[4,4-bis(4-fluorophenyl)butyl]-1-piperazinyl]-3-pyridine-carboxylic acid methyl ester dihydrochloride ethylat, reference compound]
IC50 ([1]; synaptosomes from rat frontal cortex, concentration which inhibits the uptake by 50%, read-out: IC50, uptake of [3H]-5-HT): 0.08 µM
Ki (5-HT1A Sites; [4]): 0.0007 µM
